What was measured:
in vivo = conditions: mouse, in vivo, po
Description: (§1) Tests were carried out on mice of both sexes, of the Swiss strain, of average weight 20 g. (± 2g.).

[1] = system: pain induced, in Swiss mice, by the intraperitoneal injection of phenylquinone; assay: Siegmund test (analgesic effect against pain induced by intraperitoneal phenylquinone); type: in vivo; conditions: mice; for ED50: Mus musculus, read-out: Siegmund test AD50 (50% active dose); for analgesic effects of the peripheral type (Siegmund test), compared with amidopyrine and glafenine: oral, versus amidopyrine and glafenine
Description: 1. Effect against pain induced, in Swiss mice, by the intraperitoneal injection of phenylquinone, in accordance with the experimental procedure of Siegmund (Proc. Soc. Exp. Biol. Med., 1957, 95, 729), modified by Cheymol (C.R. Soc. Biol., 1963, 157, 521) and Brittain (Nature, London, 1963, […], 895).

[2] = system: carragenine-induced oedema of the paw, Sherman rats; assay: Carragenine-induced oedema test (oedema of the paw); type: in vivo; conditions: Rattus norvegicus; rats, oral administration; read-out: Carragenine-induced oedema test AD (AD40 = 40% active dose)
[3] = system: mice of both sexes, of the Swiss strain; assay: in vivo; conditions: mice, oral administration
Description: as §1

[4] = system: heated plate test, Swiss mice; assay: Heated plate test (plate heated by acetone vapours; analgesic effects of the central type); conditions: oral, versus amidopyrine

Cc1c(N(C)C)c(=O)n(-c2ccccc2)n1C [Amidopyrine, reference compound]
LD50 (in vivo; Acute toxicity LD50 (50% lethal dose), mice, oral administration): 850 mg/kg | ED50 ([1]; oral administration): 50 mg/kg | ED40 [2]: 80 mg/kg

O=C(OCCN1CCN(c2ccc(Cl)cc2)CC1)c1ccccc1Nc1ccnc2cc(Cl)ccc12 [Compound 72-165, 2-(4'-p-Chlorophenyl-piperazino)-ethyl 2-(7'-chloro-4' quinolyl-amino)-benzoate]
LD50 (in vivo): > 2000 mg/kg | ED50 ([1]; oral administration): 50 mg/kg

O=C(OCCN1CCN(c2ccccc2)CC1)c1ccccc1Nc1ccnc2cc(C(F)(F)F)ccc12 [Compound 72-242, 2-(4'-Phenyl-piperazino)-ethyl 2-(7'-trifluoro-methyl-4'quinolyl-amino)-benzoate]
LD50 (in vivo): > 3000 mg/kg | ED50 ([1]; oral administration): 25 mg/kg | analgesic effects of the peripheral type (Siegmund test), compared with amidopyrine and glafenine [1]: generally much more active | ED40 [2]: 40 mg/kg

O=C(OCCN1CCN(c2ccccc2)CC1)c1ccccc1Nc1ccnc2cc(SC(F)(F)F)ccc12 [Compound 72-244, 2-(4'-Phenyl-piperazino)-ethyl 2-(7'-trifluoromethylthio-4'-quinolyl-amino)-benzoate]
Acute toxicity LD50 (50% lethal dose) [3]: 1,200 mg/kg | ED50 ([1]; oral administration): 10 mg/kg | analgesic effects of the peripheral type (Siegmund test), compared with amidopyrine and glafenine [1]: generally much more active

Cc1cccc(N2CCN(CCOC(=O)c3ccccc3Nc3ccnc4cc(Cl)ccc34)CC2)c1C [Compound 72-248, 2-[4'-(2",3"-Dimethyl-phenyl)-piperazino]-ethyl 2-(7'-chloro-4'-quinolyl-amino)-benzoate]
LD50 (in vivo): 1900 mg/kg | ED50 ([1]; oral administration): 20 mg/kg | analgesic effects of the peripheral type (Siegmund test), compared with amidopyrine and glafenine [1]: generally much more active | ED40 [2]: 120 mg/kg

O=C(OCCN1CCN(c2cccc(C(F)(F)F)c2)CC1)c1ccccc1Nc1ccnc2cc(Cl)ccc12 [Compound 72-391, 2-(4'-m-Trifluoromethylphenyl-piperazino)-ethyl 2-(7'-chloro-4'-quinolyl-amino)-benzoate]
Acute toxicity LD50 (50% lethal dose) [3]: 2,500 mg/kg | ED50 ([1]; oral administration): 20 mg/kg | analgesic effects of the peripheral type (Siegmund test), compared with amidopyrine and glafenine [1]: generally much more active | ED40 [2]: 40 mg/kg | analgesic effects of the central type (heated plate test), compared with amidopyrine [4]: greater than that of amidopyrine

O=C(OCCN1CCN(c2cccc(Cl)c2)CC1)c1ccccc1Nc1ccnc2cc(Cl)ccc12 [Compound 73-018, 2-(4'-m-Chlorophenyl-piperazino)-ethyl 2-(7'-chloro-4'-quinolyl-amino)-benzoate]
LD50 (in vivo): 4000 mg/kg | ED50 ([1]; oral administration): 6 mg/kg | analgesic effects of the peripheral type (Siegmund test), compared with amidopyrine and glafenine [1]: generally much more active | ED40 [2]: 120 mg/kg | analgesic effects of the central type (heated plate test), compared with amidopyrine [4]: greater than that of amidopyrine | extent of the greater activity than amidopyrine in the heated plate test [4]: considerable

O=C(OCCN1CCN(c2cccc(OC(F)(F)F)c2)CC1)c1ccccc1Nc1ccnc2cc(Cl)ccc12 [Compound 73-030, 2-(4'-m-Trifluoromethoxyphenyl-piperazino)-ethyl 2-(7'-chloro-4'-quinolyl-amino)-benzoate]
LD50 (in vivo): > 4000 mg/kg | ED50 ([1]; oral administration): 100 mg/kg | ED40 [2]: 50 mg/kg

O=C(OCCN1CCN(c2cccc(SC(F)(F)F)c2)CC1)c1ccccc1Nc1ccnc2cc(Cl)ccc12 [Compound 73-031, 2-(4'-m-Trifluoromethylthiophenyl-piperazino)-ethyl 2-(7'-chloro-4'-quinolyl-amino)-benzoate]
LD50 (in vivo): 3000 mg/kg | ED50 ([1]; oral administration): 100 mg/kg | ED40 [2]: 30 mg/kg

O=C(OCCN1CCN(c2cccc(C(F)(F)F)c2)CC1)c1ccccc1Nc1ccnc2cc(C(F)(F)F)ccc12 [Compound 73-033, 2-(4'-m-Trifluoromethylphenyl-piperazino)-ethyl 2-(7'-trifluoromethyl-4'-quinolyl-amino)-benzoate]
Acute toxicity LD50 (50% lethal dose) [3]: 4,000 mg/kg | Siegmund test AD50 (50% active dose) ([1]; oral administration): 5 mg/kg

O=C(OCCN1CCN(c2cccc(Cl)c2)CC1)c1ccccc1Nc1ccnc2cc(C(F)(F)F)ccc12 [Compound 73-045, 2-(4'-m-Chlorophenyl-piperazino)-ethyl 2-(7'-trifluromethyl-4'-quinolyl-amino)-benzoate]
LD50 (in vivo): > 4000 mg/kg | ED50 ([1]; oral administration): 8 mg/kg | analgesic effects of the peripheral type (Siegmund test), compared with amidopyrine and glafenine [1]: generally much more active | ED40 [2]: 30 mg/kg | analgesic effects of the central type (heated plate test), compared with amidopyrine [4]: greater than that of amidopyrine

Cc1c(Cl)cccc1N1CCN(CCOC(=O)c2ccccc2Nc2ccnc3cc(Cl)ccc23)CC1 [Compound 73-046, 2-[4'-(3"-Chloro-2"-methyl-phenyl)-piperazino]-ethyl 2-(7'-chloro-4'-quinolyl-amino)-benzoate]
LD50 (in vivo): > 2000 mg/kg | ED50 ([1]; oral administration): 13 mg/kg | analgesic effects of the peripheral type (Siegmund test), compared with amidopyrine and glafenine [1]: generally much more active | ED40 [2]: 30 mg/kg

Cc1c(Cl)cccc1N1CCN(CCOC(=O)c2ccccc2Nc2ccnc3cc(C(F)(F)F)ccc23)CC1 [Compound 73-047, 2-[4'-(3"-Chloro-2"-methyl-phenyl)-piperazino]-ethyl 2-(7'-trifluoromethyl-4'-quinolyl-amino)-benzoate]
LD50 (in vivo): 3000 mg/kg | ED50 ([1]; oral administration): 16 mg/kg | analgesic effects of the peripheral type (Siegmund test), compared with amidopyrine and glafenine [1]: generally much more active | ED40 [2]: 65 mg/kg

O=C(OCCN1CCN(c2cccc(SC(F)(F)F)c2)CC1)c1ccccc1Nc1ccnc2cc(C(F)(F)F)ccc12 [Compound 73-048, 2-(4'-m-Trifluoromethylthiophenyl-piperazino)-ethyl 2-(7'-trifluoromethyl-4'-quinolyl-amino)-benzoate]
LD50 (in vivo): 4000 mg/kg | ED50 ([1]; oral administration): 6 mg/kg | analgesic effects of the peripheral type (Siegmund test), compared with amidopyrine and glafenine [1]: generally much more active | ED40 [2]: 30 mg/kg

O=C(OCCN1CCN(c2cccc(OC(F)(F)F)c2)CC1)c1ccccc1Nc1ccnc2cc(C(F)(F)F)ccc12 [Compound 73-051, 2-(4'-m-trifluoromethoxyphenyl-piperazino)-ethyl 2-(7'-trifluoromethyl-4'-quinolyl-amino)-benzoate]
LD50 (in vivo): > 4000 mg/kg | ED50 ([1]; oral administration): 16 mg/kg | analgesic effects of the peripheral type (Siegmund test), compared with amidopyrine and glafenine [1]: generally much more active | ED40 [2]: 50 mg/kg

O=C(OCCN1CCN(c2cccc(SC(F)(F)F)c2)CC1)c1ccccc1Nc1ccnc2cc(SC(F)(F)F)ccc12 [Compound 73-069, 2-(4'-m-Trifluoromethylthiophenyl-piperazino)-ethyl 2-(7'-trifluoromethylthio-4'-quinolyl-amino)-benzoate]
Acute toxicity LD50 (50% lethal dose) [3]: 2,200 mg/kg | ED50 ([1]; oral administration): 50 mg/kg | ED40 [2]: 55 mg/kg

O=C(OCCN1CCN(c2cc(C(F)(F)F)cc(C(F)(F)F)c2)CC1)c1ccccc1Nc1ccnc2cc(C(F)(F)F)ccc12 [Compound 73-070, 2-[4'-(3",5"-Di-trifluoromethyl-phenyl)-piperazino]-ethyl 2-(7'-trifluoromethyl-4'-quinolyl-amino)-benzoate]
LD50 (in vivo): > 4000 mg/kg | ED50 ([1]; oral administration): 16 mg/kg | ED40 [2]: > 80 mg/kg

CCCCC1C(=O)N(c2ccccc2)N(c2ccccc2)C1=O [Phenylbutazone, reference compound]
ED50 ([1]; oral administration): 90 mg/kg | ED40 [2]: 30 mg/kg

O=C(OCCN1CCN(c2cccc(C(F)(F)F)c2)CC1)c1ccccc1Nc1ccnc2c(C(F)(F)F)cccc12 [SLB 179, 2-(4'-m-Trifluoromethylphenyl-piperazino)-ethyl 2-(8'-trifluoromethyl-4'-quinolyl-amino)-benzoate]
LD50 (in vivo): > 3000 mg/kg | ED50 ([1]; oral administration): 25 mg/kg | analgesic effects of the peripheral type (Siegmund test), compared with amidopyrine and glafenine [1]: generally much more active | ED40 [2]: 120 mg/kg | analgesic effects of the central type (heated plate test), compared with amidopyrine [4]: greater than that of amidopyrine

O=C(OCCN1CCN(c2cccc(Cl)c2)CC1)c1ccccc1Nc1ccnc2c(C(F)(F)F)cccc12 [SLB 180, 2-(4'-m-Chlorophenyl-piperazino)-ethyl 2-(8'-trifluoromethyl-4'-quinolyl-amino)-benzoate]
LD50 (in vivo): > 3000 mg/kg | ED50 ([1]; oral administration): 12 mg/kg | analgesic effects of the peripheral type (Siegmund test), compared with amidopyrine and glafenine [1]: generally much more active | ED40 [2]: > 100 mg/kg

O=C(OCCN1CCN(c2ccccc2)CC1)c1ccccc1Nc1ccnc2c(C(F)(F)F)cccc12 [SLB 181, 2-(4'-Phenyl-piperazino)-ethyl 2-(8'-trifluoromethyl-4'-quinolyl-amino)-benzoate]
LD50 (in vivo): 2000 mg/kg | ED50 ([1]; oral administration): 12 mg/kg | analgesic effects of the peripheral type (Siegmund test), compared with amidopyrine and glafenine [1]: generally much more active | ED40 [2]: 45 mg/kg

O=C(OCCN1CCN(c2cccc(SC(F)(F)F)c2)CC1)c1ccccc1Nc1ccnc2c(C(F)(F)F)cccc12 [SLB 182, 2-(4'-m-Trifluoromethylthiophenyl-piperazino)-ethyl 2-(8'-trifluoromethyl-4'-quinolyl-amino)-benzoate]
LD50 (in vivo): > 3000 mg/kg | ED50 ([1]; oral administration): 5 mg/kg | analgesic effects of the peripheral type (Siegmund test), compared with amidopyrine and glafenine [1]: generally much more active | ED40 [2]: 150 mg/kg
